According to patent US20230218544A1, “TREATMENT METHODS AND FORMULATIONS” (Curtin University, priority 2020, published 2023):
Entries after “also recorded” stand apart in the source; their conditions may differ.

Legend:
HEI-OC1 cells [1] = assay: Cisplatin cytotoxicity in inner ear sensory cells; format: cell-based, mouse; details: concentration used in subsequent experiments to ensure IC 50; 24 hours; read-out: IC 50 on cell viability
Protocol: House Ear Institute-Organ of Corti 1 (HEI-OC1) cells provided by Y J. Seo (Yonsei University, wonju, Korea) and F. Kalinec, (House Ear Institute, (Los Angeles, Calif., USA) were cultured in high-glucose Dulbecco's modified Eagle's medium (DMEM; Lonza, USA) supplemented with 10% Fetal bovine serum (FBS; Gibco BRL, USA) and 50 U/ml gamma-interferon (PEPRO TECH, INC. USA) without any antibiotics in a permissive condition (33° C., 10% CO2). For the non-permissive condition, cultured cells were cultured in the permissive condition for a certain period (Kalinec G, Thein P, Park C, Kalinec F. HEI-OC1 cells as a model for investigating drug cytotoxicity. […] Growth curves were performed to identify the growth patterns of cells in each condition. Cells cultured at 33° C., in a 10% CO2 atmosphere condition were recorded on day 0 after cell counting before seeding. Cells were recovered stripped daily from the cell dish and enumerated. This was done then, cell counted, confirmed for up to 14 days. Following the shift, cells were enumerated daily for 14 days. As explained above, HEI-OC1 cells were cultured in permissive conditions (33° C., 10% CO2) until day 5 and then transferred to the non-permissive condition (39° C., 5% CO2).
High-glucose DMEM supplemented with 0.5% FBS was used. […]

[2] = test system: guinea pig model of ototoxicity; assay: Experimental Example 4: CAP thresholds in ototoxicity animal model with kanamycin and furosemide; format: in vivo, guinea pigs (Cavia porcellus); details: for difference of CAP between ototoxicity and ototoxicity with probucol sides: day 14 post-treatment
Protocol: Experiments were performed on 9 adult guinea pigs (Cavia porcellus) of either sex with body weights between 250 and 350 g. All experimental procedures were approved by The University of Curtin Animal Ethics Committee.
For all experiments, each animal first underwent a recovery surgery at day ‘zero’ to inject.
For the recovery surgery, each animal was given a 0.05 ml subcutaneous injection of Temgesic (Buprenorpherine; Reckitt Benckiser, Auckland NZ) and 0.1 ml of Atrosine (0.6 mg/ml atropine sulphate; Apex Laboratories, NSW, Australia) before being anesthetized using isoflurane (2-5%). The temperature was maintained using an electric heating pad, and lignocaine was used as a local anesthetic. While using aseptic techniques, animals were mounted on a custom ear-bar setup, and the left bulla surgically opened via a dorsal approach providing a view of the left round window, using aseptic techniques. Before the drug administrations, the AgCl ball-electrode (reference in the neck) was placed on the round window for recording compound action potential (CAP) responses (Brown D J, Chihara Y, Curthoys I S, Wang Y, Bos M. Changes in cochlear function during acute endolymphatic hydrops development in guinea pigs. Hearing Res. 2013; 296 (J. Neurophysiol. 101 2009):96-106. doi:10.1016/j.heares.2012.12.004; Brown D J, Pastras C J, Curthoys I S, Southwell C S, Roon L V. Endolymph movement visualized with light sheet fluorescence microscopy in an acute hydrops model. Hearing Res. 2016; 339 (PloS one 7 2012):112-124. doi:10.1016/j.heares.2016.06.007; and Brown D J, Sokolic L, Fung A, Pastras C J. Response of the Inner Ear to Lipopolysaccharide Introduced Directly into Scala Media. Hearing Res. 2018; 370 (Otol Neurotol 32 2011):105-112. doi:10.1016/j.heares.2018.10.007).
The bulla opening was resealed with dental cement before the overlying skin was sutured. The animal was then removed from isoflurane, and allowed to recover slowly under close observation. During recovery, the animal was given a subsequent 0.05 ml i.p. dose of Temgesic, along with an oral delivery of 1 ml Ibuprofen (40 mg/ml; Reckitt Benckiser Pty Ltd, Australia). Animals were then allowed to recover for 14 days (±3) days. For following CAP threshold measurements after 14 days, the bulla was re-opened with same procedures. Thereafter, animals were re-anaesthetized and mounted on the ear-bars, for a repeated measure of CAP thresholds described previously. Animals were then deeply anaesthetized, and euthanized via cardiac fixation for temporal bones harvesting.
The standard deviation of CAP thresholds was measured at day 0.

[3] = test system: spiral ganglion neurons (SGNs); assay: Light sheet microscopy quantification of spiral ganglion neuron (SGN) density in cochlea; format: in vivo, guinea pig
Protocol: Harvested temporal bones were immersed in 4% para-formaldehyde overnight at 4° C., before being decalcified for 14-18 days in 10% EDTA. They were then rinsed with Sorenson's buffer, dehydrated in a series of 50, 75, 90 and 100% ethanol (8-12 h each step), and immersed in Spalteholz solution for 24 h, to render the sample optically transparent. Samples were then imaged using a custom light-sheet fluorescence microscope (LSFM), based on the setup described by Santi et al. (2009) (Santi P A. Light Sheet Fluorescence Microscopy. J Histochem Cytochem. 2010; 59(2):129-138. doi:10.1369/0022155410394857), where ‘virtual slices’ of the inner ear were imaged at […] steps in the axial plane, detailed in Brown et al. (2016) (Brown D J, Pastras C J, Curthoys I S, Southwell C S, Roon L V. Endolymph movement visualized with light sheet fluorescence microscopy in an acute hydrops model. Hearing Res. 2016; 339 (PloS one 7 2012):112-124. doi:10.1016/j.heares.2016.06.007), providing a ‘z-stack’ of between 300 and 1000 virtual slice images. LSFM images were analyzed by a blinded investigator, for later comparison to the functional data and treatment. LSFM z-stacks were analyzed using ImageJ software, with 3D volumes segmented for volume analysis using the Segmentation3D plugin. TIFF files collected from the light sheet microscope were reconstructed into representative 3D images. […]

[4] = test system: guinea pig model of ototoxicity; assay: Experimental Example 3: round window CAP thresholds after kanamycin and furosemide ototoxicity; format: in vivo, guinea pigs (Cavia porcellus)
Text: The animal was then removed from isoflurane, and allowed to recover slowly under close observation. […] Animals were then deeply anaesthetized, and euthanized via cardiac fixation for temporal bones harvesting.

HEI-OC1 cells [5] = assay: Cell viability with cisplatin and probucol (oto-protection); format: cell-based, mouse
Protocol: House Ear Institute-Organ of Corti 1 (HEI-OC1) cells provided by Y J. Seo (Yonsei University, wonju, Korea) and F. Kalinec, (House Ear Institute, (Los Angeles, Calif., USA) were cultured in high-glucose Dulbecco's modified Eagle's medium (DMEM; Lonza, USA) supplemented with 10% Fetal bovine serum (FBS; Gibco BRL, USA) and 50 U/ml gamma-interferon (PEPRO TECH, INC. USA) without any antibiotics in a permissive condition (33° C., 10% CO2). For the non-permissive condition, cultured cells were cultured in the permissive condition for a certain period (Kalinec G, Thein P, Park C, Kalinec F. HEI-OC1 cells as a model for investigating drug cytotoxicity. Hearing Res. 2016; 335:105-117. doi:10.1016/j.heares.2016.02.019). Growth curves were performed to identify the growth patterns of cells in each condition. Cells cultured at 33° C., in a 10% CO2 atmosphere condition were recorded on day 0 after cell counting before seeding. Cells were recovered stripped daily from the cell dish and enumerated. This was done then, cell counted, confirmed for up to 14 days. Following the shift, cells were enumerated daily for 14 days. As explained above, HEI-OC1 cells were cultured in permissive conditions (33° C., 10% CO2) until day 5 and then transferred to the non-permissive condition (39° C., 5% CO2).
Cisplatin was from Sigma Chemical Co. (St. Louis, Mo., USA). […]

N.N.[Cl][Pt][Cl] [cisplatin]
IC50 (HEI-OC1 cells [1]): ~20 µM

CC(C)(Sc1cc(C(C)(C)C)c(O)c(C(C)(C)C)c1)Sc1cc(C(C)(C)C)c(O)c(C(C)(C)C)c1 [probucol, 2,6-ditert-butyl-4-[2-(3,5-ditert-butyl-4-hydroxyphenyl)sulfanylpropan-2-ylsulfanyl]phenol]
difference of CAP between ototoxicity and ototoxicity with probucol sides ([2]; 6 kHz, probucol injected into bulla around RWM): 23.4±9.49 dB | difference of CAP between ototoxicity and ototoxicity with probucol sides ([2]; 10 kHz): 21.89 ± 7.72 dB | difference of CAP between ototoxicity and ototoxicity with probucol sides ([2]; 14 kHz): 16.56±4.15 dB | hearing protection in the ototoxicity guinea pig model ([2]; guinea pig, in vivo): hearing protection effect | thresholds of hearing (CAP) versus control side ([2]; significant only at 6 and 10 kHz): better thresholds of hearing | density of SGNs in the basal turn versus ototoxicity alone group ([3]; basal turn of cochlea, significant): significantly larger density; also recorded: kept not to be injured | effect on hair cell damages by ototoxicity drugs ([3]; guinea pig, in vivo): protective effect | mean difference between left and right CAP thresholds ([4]; 2 kHz, insignificant): 3 dB | hearing loss (CAP thresholds compared to baseline), probucol-treated cochleae ([4]; about 100 μL probucol-gel on round window, after kanamycin and furosemide, significant at all frequencies except 6 and 10 kHz): 11-40 dB | average CAP threshold compared to non-probucol treated cochlea ([4]; at 6 kHz and 10 kHz): significantly lower | cell survival compared with control (HEI-OC1 cells [5]; probucol 20 μM and 50 μM with cisplatin, 24 h): promoted the cell survival | cellular mitogenesis compared with control (HEI-OC1 cells [5]; probucol 100 μM, attributed to high concentration of vehicle DMSO): significant decrease in cellular mitogenesis
